Measured values published in US7928114B2, “Crystalline erlotinib” (Synthon BV, priority 2006, dated 2011).
“Also recorded” adds a separate entry of the source. Structures can show the parent of a compound that is named as a salt.

Columns and labels:
[1] = WO 01/34574, WO 2004/072049; cited from earlier work
[2] = WO 2004/072049 (Form E vs Form B), WO 99/55683 (mesylate vs hydrochloride); cited from earlier work
TGA hygroscopicity = type: physicochemical
From the text: TGA confirmed that Form II can be considered non-hygroscopic.

[3] = Relative thermodynamic stability of erlotinib free base crystal forms (prolonged stirring in 2-propanol; transitions on heating); type: physicochemical; conditions: recrystallization from 2-propanol with prolonged stirring; Forms I and III convert to Form II on heating
From the text: Recrystallization from 2-propanol may initially give Form II with a small amount of another Form. However, prolonged stirring results in pure Form II.
The hydrates of the invention can be converted into anhydrous forms and vice versa. For instance, any of the hydrates provides for the erlotinib free base Form II by heating.
The transition of hydrate Form I into Form II proceeds via melting of Form I after which the melt recrystallizes to Form II. The transition of Form III into Form II occurs via the solid-solid transformation.

[4] = XRPD under non-ambient conditions (humidity / elevated temperature); type: physicochemical; conditions: 30° C./10-90% RH and 50° C./75% RH

For `C#Cc1cccc(Nc2ncnc3cc(OCCOC)c(OCCOC)cc23)c1` [Form B, erlotinib hydrochloride], the “stability relative to other erlotinib hydrochloride polymorphs” value [1] is listed as “thermodynamically more stable than Form A”.

In the case of `C#Cc1cccc(Nc2ncnc3cc(OCCOC)c(OCCOC)cc23)c1` [Form E, erlotinib hydrochloride], the “solubility relative to comparator form/salt” value [2] is listed as “higher solubility”.

For `C#Cc1cccc(Nc2ncnc3cc(OCCOC)c(OCCOC)cc23)c1` [Form II, [6,7-bis(2-methoxyethoxy)-quinazolin-4-yl]-(3-ethynylphenyl)amine], the hygroscopicity (TGA hygroscopicity) was “non-hygroscopic”, the “thermodynamic stability relative to other free base forms” value [3] was “thermodynamically more stable Form; also recorded: thermodynamically most stable form” and the “polymorphic transitions under humid conditions at elevated temperatures” value [4] was “does not undergo polymorphic transitions”.

In the case of “erlotinib mesylate [mesylate salt of erlotinib]”, the “solubility relative to comparator form/salt” value [2] is given as “enhanced solubility compared to the hydrochloride”.
